Tested on: Bc-DLFL.1 cells
Assay: short-term in vitro survival of Bc-DLFL.1 cells on addition of recombinant BAFF
Assay type: cell-based, mouse
Conditions: addition of recombinant BAFF to culture; data not shown
From the text: The specific conditions needed to propagate Bc-DLFL.1 raised the dependence of this lymphoma for tissue-derived factors for survival. The most likely candidates are the different receptors for BAFF. […] In normal B-cell development, TACI and BCMA is expressed following activation during plasmacytic differentiation, while BAFF-R disappears. BAFF-R is more characteristic of mature resting B-cells.

recombinant BAFF: recombinant BAFF, ligand of BAFF-R, BCMA and TACI, added to Bc-DLFL.1 cells in vitro
short-term in vitro survival of Bc-DLFL.1 cells: moderately increased

From patent publication US11617356B2, “Mouse lymphoma cell line and animal model of human high grade B-cell lymphoma” (PÉCSI TUDOMÁNYEGYETEM, priority 2015, dated 2023)
